Assay results as given in US9409892B2, “4-hydroxy-isoquinoline compounds as HIF hydroxylase inhibitors” (FIBROGEN, INC., priority 2012, dated 2016).

Assays:
PHD1 (EGLN2) = PHD1 (EGLN2) (Homo sapiens (Human), UniProt Q96KS0); test: HIF-PH assay (14CO2 capture), PHD1 enzyme inhibition; format: biochemical; settings: Table 1; for IC50: individual measurement, read-out: IC50 (μM) PHD1; for PHD2/PHD1: ratio of the IC50 of the compound for each enzyme
PHD2 (EGLN1) = PHD2 (EGLN1) (Homo sapiens (Human), UniProt Q9GZT9); test: HIF-PH assay (14CO2 capture), PHD2 enzyme inhibition; format: biochemical; settings: Table 1; individual measurement; read-out: IC50 (μM) PHD2
Chain of PHD2 (EGLN1) (Q9GZT9 whole entry): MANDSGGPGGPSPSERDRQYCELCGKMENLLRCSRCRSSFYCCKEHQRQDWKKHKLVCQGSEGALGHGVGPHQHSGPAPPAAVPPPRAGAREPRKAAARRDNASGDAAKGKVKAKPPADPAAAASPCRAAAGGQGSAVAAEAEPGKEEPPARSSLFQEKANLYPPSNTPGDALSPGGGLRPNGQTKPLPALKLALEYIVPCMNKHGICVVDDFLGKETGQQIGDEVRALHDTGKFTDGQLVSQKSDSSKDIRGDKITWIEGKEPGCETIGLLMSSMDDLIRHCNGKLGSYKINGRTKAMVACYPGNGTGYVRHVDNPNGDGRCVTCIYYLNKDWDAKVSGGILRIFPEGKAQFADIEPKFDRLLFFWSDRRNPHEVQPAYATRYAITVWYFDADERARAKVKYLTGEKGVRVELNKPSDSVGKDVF

Chain of PHD1 (EGLN2) (Q96KS0 whole entry): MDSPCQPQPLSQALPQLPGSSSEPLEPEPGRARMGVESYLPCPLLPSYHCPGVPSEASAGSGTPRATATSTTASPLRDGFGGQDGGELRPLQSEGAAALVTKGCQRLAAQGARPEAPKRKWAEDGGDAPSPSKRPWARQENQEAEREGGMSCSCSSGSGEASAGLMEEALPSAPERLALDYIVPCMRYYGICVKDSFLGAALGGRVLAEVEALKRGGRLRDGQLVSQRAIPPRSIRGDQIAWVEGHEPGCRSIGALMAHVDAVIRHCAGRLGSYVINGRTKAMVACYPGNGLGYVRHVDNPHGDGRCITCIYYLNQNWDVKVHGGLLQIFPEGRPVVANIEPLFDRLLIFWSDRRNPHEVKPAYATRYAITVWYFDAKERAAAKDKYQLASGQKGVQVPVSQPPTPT

| Structure (SMILES) | IC50 (PHD1 (EGLN2)) [µM] | PHD2/PHD1 (PHD1 (EGLN2)) | IC50 (PHD2 (EGLN1)) [µM] |
| --- | --- | --- | --- |
| N#Cc1ccc([C@H](CC(=O)O)NC(=O)c2nc(C#N)c3cc(Oc4ccccc4)ccc3c2O)cc1 [Compound 172, 3-(S)-[(1-Cyano-4-hydroxy-7-phenoxy-isoquinoline-3-carbonyl)-amino]-3-(4-cyano-phenyl)-propionic acid] | 2.83 | 10 | 27.6 |
| N#Cc1nc(C(=O)NC(CC(=O)O)c2ccc(Cl)cc2)c(O)c2ccc(Oc3ccccc3)cc12 (stereo not drawn) [Compound 173, 3-(4-Chloro-phenyl)-3-[(1-cyano-4-hydroxy-7-phenoxy-isoquinoline-3-carbonyl)-amino]-propionic acid] | 3.97 | 5 | 20.9 |
| N#Cc1nc(C(=O)NC(CC(=O)O)c2cccnc2)c(O)c2ccc(Oc3ccccc3)cc12 (stereo not drawn) [Compound 174, 3-[(1-Cyano-4-hydroxy-7-phenoxy-isoquinoline-3-carbonyl)-amino]-3-pyridin-3-yl-propionic acid] | 6.75 | 6 | 39.4 |
| N#Cc1nc(C(=O)N[C@@H](CC(=O)O)c2cccnc2)c(O)c2ccc(Oc3ccccc3)cc12 [Compound 175, 3-(S)-[(1-Cyano-4-hydroxy-7-phenoxy-isoquinoline-3-carbonyl)-amino]-3-pyridin-3-yl-propionic acid] | 4.51 | 6 | 25.1 |
| N#Cc1nc(C(=O)N[C@H](CC(=O)O)c2cccnc2)c(O)c2ccc(Oc3ccccc3)cc12 [Compound 176, 3-(R)-[(1-Cyano-4-hydroxy-7-phenoxy-isoquinoline-3-carbonyl)-amino]-3-pyridin-3-yl-propionic acid] | 4.08 | 6 | 24.6 |
| N#Cc1nc(C(=O)NCC(C(=O)O)C2CC2)c(O)c2ccc(Oc3ccccc3F)cc12 (stereo not drawn) [Compound 177, 3{-[1-Cyano-7-(2-fluoro-phenoxy)-4-hydroxy-isoquinoline-3-carbonyl]-amino}-2-cyclopropyl-propionic acid] | 0.75 | 14 | 10.5 |
| N#Cc1nc(C(=O)NCC(C(=O)O)C2CC2)c(O)c2ccc(Oc3ccc(F)cc3)cc12 (stereo not drawn) [Compound 179, 3{-[1-Cyano-7-(4-fluoro-phenoxy)-4-hydroxy-isoquinoline-3-carbonyl]-amino}-2-cyclopropyl-propionic acid] | 0.95 | 9 | 8.54 |
| N#Cc1nc(C(=O)NCC(C(=O)O)C2CC2)c(O)c2ccc(Oc3c(F)cccc3F)cc12 (stereo not drawn) [Compound 180, 3{-[1-Cyano-7-(2,6-difluoro-phenoxy)-4-hydroxy-isoquinoline-3-carbonyl]-amino}-2-cyclopropyl-propionic acid] | 4.57 | 6 | 28.9 |
| N#Cc1nc(C(=O)NCC(C(=O)O)c2ccc(F)cc2)c(O)c2ccc(Oc3ccccc3)cc12 (stereo not drawn) [Compound 181, 3-[(1-Cyano-4-hydroxy-7-phenoxy-isoquinoline-3-carbonyl)-amino]-2-(4-fluoro-phenyl)-propionic acid] | 1.45 | 7 | 9.45 |
| N#Cc1nc(C(=O)NCC(C(=O)O)c2ccccc2F)c(O)c2ccc(Oc3ccccc3)cc12 (stereo not drawn) [Compound 182, 3-[(1-Cyano-4-hydroxy-7-phenoxy-isoquinoline-3-carbonyl)-amino]-2-(2-fluoro-phenyl)-propionic acid] | 1.81 | 7 | 11.9 |
| CC(C)CC(CNC(=O)c1nc(C#N)c2cc(Oc3ccccc3)ccc2c1O)CC(=O)O (stereo not drawn) [Compound 183, 3-{[(1-Cyano-4-hydroxy-7-phenoxy-isoquinoline-3-carbonyl)-amino]-methyl}-5-methyl-hexanoic acid] | 1.63 | 8 | 12.6 |
| CC(CCC(=O)O)NC(=O)c1nc(C#N)c2cc(Oc3ccccc3)ccc2c1O (stereo not drawn) [Compound 184, 4-[(1-Cyano-4-hydroxy-7-phenoxy-isoquinoline-3-carbonyl)-amino]-pentanoic acid] | 1.38 | 9 | 12.6 |
